Measurements from patent publication US9085555B2, “Complement pathway modulators and uses thereof” (priority 2011, dated 2015).

Molecular target: Factor D (Homo sapiens (Human), UniProt P00746)
Assay: biochemical
Type: biochemical
Settings: read-out: IC50

Chain of Factor D (P00746 26-253): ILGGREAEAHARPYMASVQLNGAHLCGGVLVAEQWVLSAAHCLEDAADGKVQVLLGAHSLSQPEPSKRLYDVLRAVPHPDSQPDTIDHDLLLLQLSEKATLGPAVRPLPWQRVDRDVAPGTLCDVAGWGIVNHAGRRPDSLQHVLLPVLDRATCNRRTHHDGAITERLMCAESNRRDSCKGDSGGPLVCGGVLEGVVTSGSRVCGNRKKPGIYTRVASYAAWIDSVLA

`NC(=O)n1cc(NC(=O)N2C[C@H](F)C[C@H]2C(=O)Nc2cncc(Br)c2)c2ccccc21` [Example 194, (2S,4R)-4-Fluoro-pyrrolidine-1,2-dicarboxylic acid 1-[(1-carbamoyl-1H-indol-3-yl)-amide] 2-[(5-bromo-pyridin-3-yl)-amide]] was tested, and the IC50 was 0.093 µM.
With `NC(=O)n1cc(NC(=O)N2C[C@@H](N)C[C@H]2C(=O)NCc2cccc(-c3ccccc3)c2)c2ccccc21` [Example 39, (2S,4S)-4-Amino-pyrrolidine-1,2-dicarboxylic acid 2-[(biphenyl-3-ylmethyl)-amide] 1-[(1-carbamoyl-1H-indol-3-yl)-amide]] the IC50 was 1.05 µM.
Work on `C[C@@H](NC(=O)[C@@H]1C[C@H]2C[C@H]2N1C(=O)Cn1nc(C(N)=O)c2cc(C(F)(F)F)ncc21)c1cccc(Cl)c1F` [Example 699, 1-(2-{(1R,3S,5R)-3-[(R)-1-(3-Chloro-2-fluoro-phenyl)-ethylcarbamoyl]-2-aza-bicyclo[3.1.0]hex-2-yl}-2-oxo-ethyl)-5-trifluoromethyl-1H-pyrazolo[3,4-c]pyridine-3-carboxylic acid amide] yielded an IC50 of 0.118 µM.
In the case of `NC(=O)n1cc(NC(=O)N2CC[C@@H](O)[C@H]2C(=O)NCc2cccc(Cl)c2F)c2ccccc21` [Example 213, (2S,3R)-3-Hydroxy-pyrrolidine-1,2-dicarboxylic acid 1-[(1-carbamoyl-1H-indol-3-yl)-amide] 2-(3-chloro-2-fluoro-benzylamide)], the IC50 is reported as 0.012 µM.
Work on `COC(=O)[C@H]1C[C@@H](C(=O)NCc2cccc(Cl)c2F)N(C(=O)Nc2cn(C(N)=O)c3ccccc23)C1` [Example 200, (3S,5S)-1-(1-Carbamoyl-1H-indol-3-ylcarbamoyl)-5-(3-chloro-2-fluoro-benzylcarbamoyl)-pyrrolidine-3-carboxylic acid methyl ester] yielded an IC50 of 0.025 µM.
Work on `NC(=O)n1cc(NC(=O)N2C[C@@H](N)C[C@H]2C(=O)NC(CCO)c2cccc(Cl)c2)c2ccccc21` (stereo partly drawn) [Example 71, (2S,4S)-4-Amino-pyrrolidine-1,2-dicarboxylic acid 1-[(1-carbamoyl-1H-indol-3-yl)-amide] 2-{[1-(3-chloro-phenyl)-3-hydroxy-propyl]-amide}] yielded an IC50 of 2.9 µM.
For `C=CCOc1ccc2c(NC(=O)N3C4CC4C[C@H]3C(=O)NCc3cccc(Cl)c3F)cn(C(N)=O)c2c1` (stereo partly drawn) [Example 311, (1R,3S,5R)-2-Aza-bicyclo[3.1.0]hexane-2,3-dicarboxylic acid 2-[(6-allyloxy-1-carbamoyl-1H-indol-3-yl)-amide] 3-(3-chloro-2-fluoro-benzylamide)], the IC50 was 0.07 µM.
For “(1R,3S,5R)-2-[2-(3-Acetyl-6- amino-pyrrolo[2,3-b]pyridin-1- yl)-acetyl]-2-aza-bicyclo [3.1.0]hexane-3-carboxylic acid 3-chloro-2-fluoro- benzylamide [Example 676]”, the IC50 was 0.011 µM.
`COC[C@@]12C[C@@H](C(=O)NCc3cccc(Cl)c3F)N(C(=O)Cc3cn(C(N)=O)c4ccccc34)[C@@H]1C2` [Example 454, 3-{2-[(1R,3S,5S)-3-(3-Chloro-2-fluoro-benzylcarbamoyl)-5-methoxymethyl-2-aza-bicyclo[3.1.0]hex-2-yl]-2-oxo-ethyl}-indole-1-carboxylic acid amide] showed an IC50 of 0.103 µM.
With `CC(C)c1cccc(NC(=O)[C@@H]2C[C@H](N)CN2C(=O)Nc2cn(C(N)=O)c3ccccc23)c1` [Example 102, (2S,4S)-4-Amino-pyrrolidine-1,2-dicarboxylic acid 1-[(1-carbamoyl-1H-indol-3-yl)-amide]2-[(3-isopropyl-phenyl)-amide]] the IC50 was 0.567 µM.
Work on `COC[C@@H](NC(=O)[C@@H]1C[C@H]2C[C@H]2N1C(=O)Cn1cc(C(C)=O)c2cccnc21)c1cccc(Cl)c1F` [Example 533, (1R,3S,5R)-2-[2-(3-Acetyl-pyrrolo[2,3-b]pyridin-1-yl)-acetyl]-2-aza-bicyclo[3.1.0] hexane-3-carboxylic acid [(S)-1-(3-chloro-2-fluoro-phenyl)-2-methoxy-ethyl]-amide] yielded an IC50 of 0.034 µM.
Compound `CC(=O)c1cn(CC(=O)N2C[C@H](F)C[C@H]2C(=O)NCc2cccc(Cl)c2F)c2cnccc12` [Example 552, (2S,4R)-1-[2-(3-Acetyl-pyrrolo[2,3-c]pyridin-1-yl)-acetyl]-4-fluoro-pyrrolidine-2-carboxylic acid 3-chloro-2-fluoro-benzylamide] has an IC50 of 0.04 µM.
With `NC(=O)n1cc(NC(=O)N2C[C@H](F)C[C@H]2C(=O)NCc2cc(C(=O)O)cc(Cl)c2F)c2ccccc21` [Example 144, 3-({[(2S,4R)-1-(1-carbamoyl-1H-indol-3-ylcarbamoyl)-4-fluoro-pyrrolidine-2-carbonyl]-amino}-methyl)-5-chloro-4-fluoro-benzoic acid] the IC50 was 0.015 µM.
For `NC(=O)n1cc(NC(=O)N2[C@@H]3C[C@@H]3C[C@H]2C(=O)NCc2ccccc2)c2ccccc21` [Example 258, (1R,3S,5R)-2-Aza-bicyclo[3.1.0]hexane-2,3-dicarboxylic acid 3-benzylamide 2-[(1-carbamoyl-1H-indol-3-yl)-amide]], the IC50 was 0.078 µM.
For `Cc1cc2c(C(N)=O)nn(CC(=O)N3[C@@H]4C[C@@H]4C[C@H]3C(=O)Nc3cccc(Br)c3F)c2cn1` [Example 670, 1-{2-[(1R,3S,5R)-3-(3-Bromo-2-fluoro-phenylcarbamoyl)-2-aza-bicyclo[3.l.0]hex-2-yl]-2-oxo-ethyl}-5-methyl-1H-pyrazolo[3,4-c]pyridine-3-carboxylic acid amide], the IC50 was 0.09 µM.
`CC[C@H](C)[C@H](NC(=O)[C@@H]1C[C@H](N)CN1C(=O)Nc1cn(C(N)=O)c2ccccc12)C(=O)OC` [Example 92, (2S,3S)-2-{[(2S,4S)-4-Amino-1-(1-carbamoyl-1H-indol-3-ylcarbamoyl)-pyrrolidine-2-carbonyl]-amino}-3-methyl-pentanoic acid methyl ester] showed an IC50 of 8.65 µM.
Compound `CNC(=O)n1cc(NC(=O)N2[C@@H]3C[C@@H]3C[C@H]2C(=O)N[C@H](COC)c2cccc(Cl)c2F)c2ccccc21` [Example 270, (1R,3S,5R)-2-Aza-bicyclo[3.1.0]hexane-2,3-dicarboxylic acid 3-{[(S)-1-(3-chloro-2-fluoro-phenyl)-2-methoxy-ethyl]-amide} 2-[(1-methylcarbamoyl-1H-indol-3-yl)-amide]] has an IC50 of 0.054 µM.
Work on `CC(=O)c1cn(CC(=O)N2C[C@H](F)C[C@H]2C(=O)NCc2cccc(Cl)c2F)c2ccc(OC(F)(F)F)cc12` [Example 539, (2S,4R)-1-[2-(3-Acetyl-5-trifluoromethoxy-indol-1-yl)-acetyl]-4-fluoro-pyrrolidine-2-carboxylic acid 3-chloro-2-fluoro-benzylamide] yielded an IC50 of 0.031 µM.
`NC(=O)n1cc(CC(=O)N2C[C@H](F)C[C@H]2C(=O)NCc2cccc(Cl)c2F)c2cc(F)ccc21` [Example 460, 3-{2-[(2S,4R)-2-(3-Chloro-2-fluoro-benzylcarbamoyl)-4-fluoro-pyrrolidin-1-yl]-2-oxo-ethyl}-5-fluoro-indole-1-carboxylic acid amide] showed an IC50 of 0.02 µM.
Work on `NC(=O)n1cc(NC(=O)N2C[C@@H](N)C[C@H]2C(=O)NC(c2ccccc2)c2ccccc2)c2ccccc21` [Example 73, (2S,4S)-4-Amino-pyrrolidine-1,2-dicarboxylic acid 2-benzhydryl-amide 1-[(1-carbamoyl-1H-indol-3-yl)-amide]] yielded an IC50 of 0.325 µM.
Work on `COC(=O)c1ccc2c(C(C)=O)nn(CC(=O)N3[C@@H]4C[C@@H]4C[C@H]3C(=O)NCc3cccc(Cl)c3F)c2c1` [Example 632, 3-Acetyl-1-{2-[(1R,3S,5R)-3-(3-chloro-2-fluoro-benzylcarbamoyl)-2-aza-bicyclo [3.1.0]hex-2-yl]-2-oxo-ethyl}-1H-indazole-6-carboxylic acid methyl ester] yielded an IC50 of 0.018 µM.
With `NC(=O)n1cc(CC(=O)N2[C@@H]3C[C@@H]3C[C@H]2C(=O)NCc2cccc(Cl)c2F)c2ccc(CC(=O)O)cc21` [Example 473, (1-Carbamoyl-3-{2-[(1R,3S,5R)-3-(3-chloro-2-fluoro-benzylcarbamoyl)-2-aza-bicyclo[3.1.0]hex-2-yl]-2-oxo-ethyl}-1H-indol-6-yl)-acetic acid] the IC50 was 0.463 µM.
`COC(=O)c1ccc(NC(=O)[C@@H]2C[C@@H](F)CN2C(=O)Nc2cn(C(N)=O)c3ccccc23)cc1Br` [Example 156, 2-Bromo-4-{[(2S,4R)-1-(1-carbamoyl-1H-indol-3-ylcarbamoyl)-4-fluoro-pyrrolidine-2-carbonyl]-amino}-benzoic acid methyl ester] was tested, and the IC50 was 0.15 µM.
In the case of `NC(=O)n1cc(CC(=O)N2[C@@H]3C[C@@H]3C[C@H]2C(=O)Nc2cccc(OC(F)(F)F)c2)c2cc(OCCO)ccc21` [Example 455, 5-(2-Hydroxy-ethoxy)-3-{2-oxo-2-[(1R,3S,5R)-3-(3-trifluoromethoxy-phenylcarbamoyl)-2-aza-bicyclo[3.1.0]hex-2-yl]-ethyl}-indole-1-carboxylic acid amide], the IC50 is reported as 0.767 µM.
With `NC(=O)n1cc(NC(=O)N2[C@@H]3C[C@@H]3C[C@H]2C(=O)NCc2cccc(Cl)c2F)c2cc(OCCn3ccnc3)ccc21` [Example 389, 1R,3S,5R)-2-Aza-bicyclo[3.1.0]hexane-2,3-dicarboxylic acid 2-{[1-carbamoyl-5-(2-imidazol-1-yl-ethoxy)-1H-indol-3-yl]-amide}3-(3-chloro-2-fluoro-benzylamide] the IC50 was 0.03 µM.
Compound `CC(=O)c1cn(CC(=O)N2[C@H](CNC(=O)Oc3cccc(Cl)c3F)C[C@H]3C[C@H]32)c2ccccc12` [Example 622, {(1R,3S,5R)-2-[2-(3-Acetyl-indol-1-yl)-acetyl]-2-aza-bicyclo[3.1.0]hex-3-ylmethyl}-carbamic acid 3-chloro-2-fluoro-phenyl ester] has an IC50 of 5.59 µM.
`NC(=O)n1cc(NC(=O)N2C[C@@H](N)C[C@H]2C(=O)NCc2cccc(Cl)c2)c2ccccc21` [Example 29, (2S,4S)-4-Amino-pyrrolidine-1,2-dicarboxylic acid 1-[(1-carbamoyl-1H-indol-3-yl)-amide] 2-(3-chloro-benzylamide)] gave an IC50 of 0.588 µM.
`O=C(CO)c1cn(CC(=O)N2C[C@H](F)C[C@H]2C(=O)N[C@H](CF)c2cccc(Br)c2)c2ccccc12` [Example 551, (2S,4R)-4-Fluoro-1-{2-[3-(2-hydroxy-acetyl)-indol-1-yl]-acetyl}-pyrrolidine-2-carboxylic acid [(S)-1-(3-bromo-phenyl)-2-fluoro-ethyl]-amide] showed an IC50 of 0.899 µM.
`Cc1ccc2c(NC(=O)N3CCC[C@H]3C(=O)Nc3cccc(OC(F)(F)F)c3)cn(C(N)=O)c2c1` [Example 269] showed an IC50 of 1.6 µM.
